In patent US9289364B2, “Tyrosinase inhibitors” (Avon Products, Inc., priority 2013, dated 2016):

Tests used:
[1] = tested on: Mushroom tyrosinase; assay: Mushroom tyrosinase assay (conversion of L-Tyrosine to DOPAchrome); assay type: biochemical; conditions: 25° C., 30 min, absorbance 492 nm
Procedure: Mushroom tyrosinase and L-Tyrosine were obtained from Sigma-Aldrich, Inc. (St. Louis, Mo.). The enzyme activity was measured in buffer containing 100 mM phosphate buffer pH 6.8, 5% absolute ethanol, 2 micrograms/milliliter mushroom tyrosinase, and 0.2 mg/ml L-Tyrosine. The reaction (conversion of L-Tyrosine to DOPAchrome) was conducted in triplicates at 25° C. for 30 min, and absorbance was then measured at 492 nm. Kojic Acid was used as a positive control inhibitor in these assays. Percent change in tyrosinase activity relative to vehicle control was calculated.

[2] = tested on: B16 mouse melanoma cells; assay: Inhibition of melanin production in B16 melanoma cell assay; assay type: cell-based; conditions: 4 days, alpha MSH 2 nanogram/ml, normalized to cell viability (MTT)
Procedure: The effects of various test compounds on melanin levels were determined by performing assays using B16 melanoma cells. These cells are known to constitutively produce melanin and are a commonly utilized and accepted model system for monitoring the inhibition of melanin synthesis. The B16 mouse melanoma cells were seeded (ATCC, cat. #: CRL-6475) into 96-well tissue culture-treated plates (BD Falcon) and treated with test actives or controls in phenol red free DMEM (Mediatech; cat. #: 17-205-CV) with 2 nanogram/ml of alpha MSH (Fluka; cat #:63605). The cells were examined for their ability to modulate pigment formation. […] Tests were performed in 6 replicates each. Following the treatment period (4 days), the level of pigment produced or melanin synthesized was quantified by reading the absorbance at 540 nm using a standard microplate reader (Tecan Group Ltd.).
After quantifying the amount of melanin, cell viability was determined using the MTT conversion method. The MTT conversion method measures the reduction of the MTT dye from a yellow colored, water-soluble, tetrazolium salt to a bluish-purple colored insoluble formazan precipitate by NAD(P)H-dependent microsomal dehydrogenase enzymes, which only function in viable cells. The intensity of the blue color is indicative of cell viability. After quantifying the amount of melanin pigment produced, the cells were exposed to MTT dye solution (1 mg/ml) for two to three hours. Formazan material was solubilized with reagent alcohol (95% ethanol: 5% isopropanol) and shaken on an orbital shaker for 15-30 minutes. MTT dye uptake and conversion by viable cells were determined by measuring the extracted formazan at 570 nm using a microplate reader. Total pigmentation was calculated, normalized to cell viability values and expressed as the average percent change in melanin activity relative to control of the six experiments performed.

SMILES	Tyrosinase Inhibition (percent change in tyrosinase activity compared to DMSO vehicle control) ([1]; concentration 0.0010%) [%]	Tyrosinase Inhibition (percent change in tyrosinase activity compared to DMSO vehicle control) ([1]; concentration 0.0100%) [%]	B16 Assay Pigmentation Decrease (percent change in melanin compared to DMSO vehicle control) ([2]; concentration 0.0001%) [%]	B16 Assay Pigmentation Decrease (percent change in melanin compared to DMSO vehicle control) ([2]; concentration 0.0010%) [%]
CN1CCN(c2nc(-c3ccc(O)cc3O)cs2)CC1 [AV5370]	−75	−59	−10	−77
Cc1cc(C)cc(Nc2nc(-c3ccc(O)cc3O)cs2)c1 [AV4662]	−46		−57	
